Drawing on patent publication US6632829B2, “Sulfonamides and derivatives thereof that modulate the activity of endothelin” (Texas Biotechnology Corp., priority 1996, dated 2003), this text covers IC50 for 22 molecules.

Bounds are passed on as bounds.

In one assay the target is T1, human ETB receptor (Homo sapiens, UniProt P24530).
T1 construct: expressed in transfected cells; host or cells: COS7 cells
T1 sequence (P24530 27-442): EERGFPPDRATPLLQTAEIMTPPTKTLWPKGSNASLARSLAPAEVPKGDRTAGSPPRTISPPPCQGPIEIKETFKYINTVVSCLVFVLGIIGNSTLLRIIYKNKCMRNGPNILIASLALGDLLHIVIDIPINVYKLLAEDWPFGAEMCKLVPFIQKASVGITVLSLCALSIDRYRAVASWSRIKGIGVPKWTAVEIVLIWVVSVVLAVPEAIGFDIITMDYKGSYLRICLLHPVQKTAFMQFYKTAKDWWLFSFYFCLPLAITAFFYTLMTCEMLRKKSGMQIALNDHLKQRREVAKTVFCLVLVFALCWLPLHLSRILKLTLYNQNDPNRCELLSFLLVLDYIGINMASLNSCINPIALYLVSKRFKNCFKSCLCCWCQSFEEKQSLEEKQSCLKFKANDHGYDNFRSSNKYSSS
The assay can be described thus: Endothelin binding inhibition, Binding Test #2: competition with 125I-ET-1 for ETB receptors on transfected COS7 cell membranes. The text has this: Compounds that are potential endothelin antagonists are identified by testing their ability to compete with ^125I-labeled ET-1 for binding to human ETA receptors or ETB receptors present on isolated cell membranes. The effectiveness of the test compound as an antagonist or agonist of the biological tissue response of endothelin can also be assessed by measuring the effect on endothelin induced contraction of isolated rat thoracic aortic rings. The ability of the compounds to act as antagonists or agonists for ETB receptors can be assess by testing the ability of the compounds are to inhibit endothelin-1 induced prostacyclin release from cultured bovine aortic endothelial cells.
COS7 cells were transfected with DNA encoding the ETB receptor, The resulting cells, which express the human ETB receptor, were grown to confluence in T-150 flasks. Membrane was prepared as described above. The binding assay was performed as described above using the membrane preparation diluted with binding buffer to a concentration of 1 μg/50 μL.
(§1) Briefly, the COS7 cells, described above, that had been transfected with DNA encoding the ETB receptor and express the human ETB receptor on their surfaces were grown to confluence in T-175 flasks. Cells from multiple flasks were collected by scraping, pooled and centrifuged for 10 min at 190×g. The cells were resuspended in phosphate buffered saline (PBS) containing 10 mM EDTA using a Tenbroeck homogenizer. The suspension was centrifuged at 4° C. 57,800×g for 15 min, the pellet was resuspended in 5 mL of buffer A (5 mM HEPES buffer, pH 7.4 containing aprotinin (100 KIU/mL)) and then frozen and thawed once. Five mL of Buffer B (5 mM HEPES Buffer, pH 7.4 containing 10 mM MnCl2 and 0.001% deoxyribonuclease Type 1) was added, the suspension mixed by inversion and then incubated at 37° C. for 30 minutes. The mixture was centrifuged at 57,800×g as described above, the pellet washed twice with buffer A and then resuspended in buffer C (30 mM HEPES buffer, pH 7.4 containing aprotinin (100 KIU/mL) to give a final protein concentration of 2 mg/mL.
The binding assay was performed as described above using the membrane preparation diluted to give 1 μg/50 μL of binding buffer.

For the next assay, the target named is T2, human ETA receptors (Homo sapiens, UniProt P25101).
T2 construct: endogenous in cells; host or cells: TE 671 cells (ATCC HTB 139), membrane preparation
T2 sequence (P25101 21-427): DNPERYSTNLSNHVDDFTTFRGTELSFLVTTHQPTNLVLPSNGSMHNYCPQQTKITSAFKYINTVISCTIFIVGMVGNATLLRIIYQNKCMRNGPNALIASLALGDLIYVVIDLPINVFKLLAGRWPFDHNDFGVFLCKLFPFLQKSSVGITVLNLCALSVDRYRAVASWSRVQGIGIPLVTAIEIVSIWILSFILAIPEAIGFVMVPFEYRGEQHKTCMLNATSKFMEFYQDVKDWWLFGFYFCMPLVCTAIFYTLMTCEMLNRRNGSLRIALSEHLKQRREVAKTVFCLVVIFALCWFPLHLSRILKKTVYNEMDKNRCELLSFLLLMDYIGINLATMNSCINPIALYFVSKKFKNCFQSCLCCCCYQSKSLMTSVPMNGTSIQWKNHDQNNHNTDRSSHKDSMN
The assay can be described thus: Endothelin binding inhibition, Binding Test #1: competition with 125I-ET-1 for ETA receptors on TE 671 cell membranes. The procedure: as §1, with “Cells from” for “Briefly, the COS7 cells, described above, that had been transfected with DNA encoding the ETB receptor and express the human ETB receptor on their surfaces were grown to confluence in T-175 flasks. Cells from”, “4° C. at 57,800×g for” for “4° C. 57,800×g for”, “thawed once. 5 mL of” for “thawed once. Five mL of”, “of 2 mg/mL and stored at −70° C. until use.” for “of 2 mg/mL.”
The membrane suspension (50 μL), containing up to 8 μg of membrane protein, was added to each of (A), (B), or (C). […] Alternatively, the incubation was conducted at 24° C.
The supernatant, containing unbound radioactivity, was decanted and the pellet counted on a Genesys multiwell gamma counter. The degree of inhibition of binding (D) was calculated according to the following equation: [formula]
Each test was generally performed in triplicate.

Setting [1] is: incubation at 24° C. (values marked †).
[2] abbreviates: incubation at 4° C. (values without †).

By IC50 is commonly meant the concentration at which inhibition is half-maximal.

For `Cc1noc(NS(=O)(=O)c2ccsc2C(=O)Nc2cccc(C(=O)O)c2)c1Br` [N-(4-bromo-3-methyl-5-isoxazolyl)-2-[(3-carboxyphenyl)aminocarbonyl]thiophene-3-sulfonamide], the results for the IC50 on human ETB receptor (setting [1]) and on human ETA receptors (setting [1]) were greater than 100000 nM and 62 nM, respectively.
Consider `Cc1ccc(OCc2ccsc2S(=O)(=O)Nc2onc(C)c2Br)cc1` [N-(4-bromo-3-methyl-5-isoxazolyl)-3-[(4-methylphenoxy)methyl]thiophene-2-sulfonamide], for which the results for the IC50 at human ETB receptor (setting [1]) and at human ETA receptors (setting [1]) were 22800 nM and 1640 nM, respectively.
For `Cc1cc(CC(C)C)ccc1-c1ccsc1S(=O)(=O)Nc1onc(C)c1Br` [N-(4-bromo-3-methyl-5-isoxazolyl)-3-(4-iso-butyl-2-methylphenyl)thiophene-2-sulfonamide], the half-inhibitory concentration (IC50) on human ETB receptor (setting [1]) turned out to be 1660 nM; on human ETA receptors (setting [1]), 46.8 nM.
On to `Cc1noc(NS(=O)(=O)c2ccsc2C(=O)Cc2ccc3c(c2)OCO3)c1C` [N-(3,4-dimethyl-5-isoxazolyl)-2-[3,4-(methylenedioxy)phenylacetyl]thiophene-3-sulfonamide], for which the IC50 at human ETB receptor (setting [1]) came to 12200 nM; on human ETA receptors (setting [1]) it was 27.3 nM.
As for “N-(4-chloro-3-methyl-5-isoxazolyl)-2-[2-methyl-4,5-(methylenedioxy)phenylhydroxyimino]thiophene-3-sulfonamide”, the IC50 at human ETB receptor (setting [1]) was found to be 6490 nM; at human ETA receptors (setting [1]) it was 794 nM.
Consider `Cc1noc(NS(=O)(=O)c2ccc(C(=O)Nc3ccccc3)s2)c1Cl` [N-(4-chloro-3-methyl-5-isoxazolyl)-5-(phenylaminocarbonyl)thiophene-2-sulfonamide], for which the figures for the IC50 at human ETB receptor (setting [1]) and at human ETA receptors (setting [1]) were 60600 nM and 28100 nM, respectively.
For the molecule `Cc1noc(NS(=O)(=O)c2sccc2CC=Cc2cc3c(cc2COC2CCCCO2)OCO3)c1Br` (stereo not drawn) [N-(4-bromo-3-methyl-5-isoxazolyl)-3-{2-[(tetrahydro-4H-pyran-2-yloxy)methyl]-4,5-(methylenedioxy)cinnamyl}thiophene-2-sulfonamide], the half-inhibitory concentration (IC50) turned out to be 4140 nM at human ETB receptor (setting [2]) and 96.7 nM at human ETA receptors (setting [1]).
As to `Cc1cc(C)c(OC(=O)c2sccc2S(=O)(=O)Nc2onc(C)c2Cl)c(C)c1` [N-(4-chloro-3-methyl-5-isoxazolyl)-2-[(2,4,6-trimethylphenoxy)carbonyl]thiophene-3-sulfonamide], the half-inhibitory concentration (IC50) at human ETB receptor (setting [1]) was 30200 nM; at human ETA receptors (setting [1]), 77.6 nM.
For `Cc1cc2c(cc1CC(=O)c1sccc1S(=O)(=O)Nc1noc(C)c1Cl)OCO2` [N-(4-chloro-5-methyl-3-isoxazolyl)-2-[2-methyl-4,5-(methylenedioxy)phenylacetyl]thiophene-3-sulfonamide], the IC50 was determined as 3690 nM on human ETB receptor (setting [1]) and 0.625 nM on human ETA receptors (setting [1]).
In the case of `COc1cc(Cc2sc3ccccc3c2S(=O)(=O)Nc2onc(C)c2Br)cc(OC)c1OC` [N-(4-bromo-3-methyl-5-isoxazolyl)-2-(3,4,5-trimethoxybenzyl)-benzo[b]thiophene-3-sulfonamide], the IC50 on human ETB receptor (setting [1]) was determined as 1200 nM; at human ETA receptors (setting [1]), 13 nM.
“N-2-[3,4-(methylenedioxy)phenylacetyl]thiophene-3-sulfonamide”: the IC50 on human ETB receptor (setting [1]) stood at 32500 nM; on human ETA receptors (setting [1]), 1800 nM.
For `Cc1cc(C)c(OCc2ccsc2S(=O)(=O)Nc2onc(C)c2Br)c(C)c1` [N-(4-bromo-3-methyl-5-isoxazolyl)-3-[(2,4,6-trimethylphenoxy)methyl]thiophene-2-sulfonamide] the same measures were 4680 nM and 45.7 nM.
In the case of `Cc1noc(NS(=O)(=O)c2ccsc2CO)c1Br` [N-(4-bromo-3-methyl-5-isoxazolyl)-2-(hydroxymethyl)thiophene-3-sulfonamide], the IC50 on human ETB receptor (setting [2]) came out at 44100 nM; at human ETA receptors (setting [2]) it was 160 nM; on human ETA receptors (setting [1]), 1550 nM.
On to `Cc1noc(NS(=O)(=O)c2ccsc2C(=O)Nc2cc3c(cc2CCO)OCO3)c1Cl` [N-(4-chloro-3-methyl-5-isoxazolyl)-2-[3,4-(methylenedioxy)-6-(2-hydroxyethyl)phenylaminocarbonyl]thiophene-3-sulfonamide], for which the 50% inhibitory concentration (IC50) stood at 16800 nM on human ETB receptor (setting [1]) and 5.6 nM at human ETA receptors (setting [1]).
Turning to `COc1ccc(CC(=O)c2sccc2S(=O)(=O)Nc2onc(C)c2Cl)cc1` [N-(4-chloro-3-methyl-5-isoxazolyl)-2-[(4-methoxyphenyl)acetyl]thiophene-3-sulfonamide], the concentration for half-maximal inhibition (IC50) came out at 10100 nM at human ETB receptor (setting [1]) and 43 nM on human ETA receptors (setting [1]).
For the molecule `Cc1noc(NS(=O)(=O)c2sccc2CC=Cc2cc3c(cc2CO)OCO3)c1Br` [N-(4-bromo-3-methyl-5-isoxazolyl)-3-[2-(hydroxymethyl)-4,5-(methylenedioxy)cinnamyl]thiophene-2-sulfonamide], the half-maximal inhibitory concentration (IC50) at human ETB receptor (setting [1]) turned out to be 3240 nM; at human ETA receptors (setting [1]) it was 79.5 nM.
For `Cc1noc(NS(=O)(=O)c2ccsc2C(=O)Cc2ccc3c(c2)OCO3)c1Br` [N-(4-bromo-3-methyl-5-isoxazolyl)-2-[(3,4-methylenedioxy)phenylacetyl]thiophene-3-sulfonamide] the same measures were 5500 nM and 9.1 nM.
For `CCc1ccc(Cc2sc3ccccc3c2S(=O)(=O)Nc2onc(C)c2Br)cc1` [N-(4-bromo-3-methyl-5-isoxazolyl)-2-(4-ethylbenzyl)benzo[b]thiophene-3-sulfonamide] the same measures were 1100 nM and 48 nM.
Consider `Cc1cc(NC(=O)c2sccc2S(=O)(=O)Nc2onc(C)c2Cl)no1` [N-(4-chloro-3-methyl-5-isoxazolyl)-2-[(5-methyl-3-isoxazolyl)aminocarbonyl]thiophene-3-sulfonamide], for which the IC50 at human ETB receptor (setting [1]) turned out to be 92000 nM; on human ETA receptors (setting [1]) it was 56 nM.
Consider `CCc1ccc(-c2ccsc2S(=O)(=O)Nc2onc(C)c2Br)cc1` [N-(4-bromo-3-methyl-5-isoxazolyl)-3-(4-ethylphenyl)thiophene-2-sulfonamide], for which the IC50 turned out to be 43900 nM on human ETB receptor (setting [1]) and 184 nM at human ETA receptors (setting [2]).
Turning to `Cc1cc(C)c(C(=O)O)c(C)c1NC(=O)c1sccc1S(=O)(=O)Nc1onc(C)c1Cl` [N-(4-chloro-3-methyl-5-isoxazolyl)-2-(3-carboxyl-2,4,6-trimethylphenylaminocarbonyl)thiophene-3-sulfonamide], the 50% inhibitory concentration (IC50) was found to be 22400 nM on human ETB receptor (setting [1]) and 11.9 nM on human ETA receptors (setting [1]).
For “N-(4-chloro-3-methyl-5-isoxazolyl)-2-[2-hydroxypropyl-4,5-(methylenedioxy)phenylaminocarbonyl]thiophene-3-sulfonamide” the same measures were 8300 nM and 7.3 nM.
